The text below walks through data of patent EP0506011A1, “Tetrazoleacetic acid derivatives having aldose reductase inhibitory activity” (Wakamoto Pharmaceutical Co., Ltd., priority 1991, dated 1992).

The experiment has as its target T1, aldose reductase (Rattus norvegicus, UniProt P07943).
T1 construct: The lenses were homogenized in 3 volumes of 135 mM sodium potassium phosphate buffer (pH 7.0) and centrifuged; from tissue; host or cells: crystalline lenses of six-week-old male SD rats
Kind of experiment: Test for Examining Aldose Reductase Inhibitory Effect (rat lens enzyme, DL-glyceraldehyde substrate, absorbance at 340 nm). It counts as biochemical. Particulars: aldose reductase solution from crystalline lenses of SD rats; DL-glyceraldehyde 10 mM; 30°C for 5 minutes; pH 5.2; compound at 10 ⁻⁶ M, 10⁻⁷ M or 10 ⁻⁸ M; read-out: IC₅₀. How it is done: Six-week-old male SD rats were anesthetized with ether and killed. Then their crystalline lenses were immediately removed and stored at -80 °C . […] The resulting supernatant was dialyzed overnight against 0.05 M sodium chloride solution to obtain an aldose reductase solution. All operations were conducted at 4 °C and the enzyme solution was stored at -80°C .
More specifically, 0.1 ml of DL-glyceraldehyde (final concentration: 10 mM) was added to 0.9 ml of 100 mM sodium potassium phosphate buffer (pH 5.2) which contained lithium sulfate (final concentration: 400 mM), reduced nicotinamide adenine dinucleotide phosphate (final concentration: 0.15 mM), the enzyme solution, and the compound to be evaluated (final concentration: 10 ⁻⁶ M, 10⁻⁷ M or 10 ⁻⁸ M), and then the reaction was conducted at 30°C for 5 minutes. During the reaction, the change in the absorbance at 340 nm with time was monitored.
The maximum reducing rate of the absorbance (U) during the reaction was determined. By subtracting, from this value, the maximum reducing rate (U₀) at 340 nm of the reaction solution before the addition of the substrate (DL-glyceraldehyde), the reaction rate (V = U - U₀) was calculated as a true reaction rate in the presence of the compound to be tested. The same procedure was repeated except for the absence of the compound to be tested. A true reaction rate (V₀) in case the enzyme was not inhibited was calculated (V₀ = U¹ - U₀¹). The aldose reductase inhibitory activity of the test compounds was determined according to the following formula: Rate of Inhibition (%) = (V₀ - V)/V₀ x 100 [formula]
As for `COc1ccc2sc(-c3nnnn3CC(=O)O)cc2c1` [Example 2-10, [5-(5-Methoxy-2-benzothienyl)tetrazol-1-yl]acetic acid], the IC50 is 28 nM.
The value for `O=C(O)Cn1nnnc1-c1ccc2ccsc2c1` [Example 2-4, [5-(6-Benzothienyl)tetrazol-1-yl]acetic acid] was 34 nM.
For `O=C(O)Cn1nnnc1-c1cc2ccccc2s1` [Example 2-1, [5-(2-Benzothienyl)tetrazol-1-yl]acetic acid], the IC50 stood at 24 nM.
As for `Cc1c(-c2nnnn2CC(=O)O)sc2ccccc12` [Example 2-5, [5-(3-Methyl-2-benzothienyl)tetrazol-1-yl]acetic acid], the IC50 turned out to be 32 nM.
Under `Cc1ccc2cc(-c3nnnn3CC(=O)O)sc2c1` [Example 2-8, [5-(6-Methyl-2-benzothienyl)tetrazol-1-yl]acetic acid] stands 18 nM.
Under `O=C(O)Cn1nnnc1-c1csc2ccccc12` [Example 2-2, [5-(3-Benzothienyl)tetrazol-1-yl]acetic acid] stands 19 nM; under `O=C(O)Cn1nnnc1-c1sc2ccccc2c1Cl` [Example 2-6, [5-(3-Chloro-2-benzothienyl)tetrazol-1-yl]acetic acid], 35 nM; under `Cc1cccc2sc(-c3nnnn3CC(=O)O)cc12` [Example 2-7, [5-(4-Methyl-2-benzothienyl)tetrazol-1-yl]acetic acid], 22 nM.
As to `COc1cc2cc(-c3nnnn3CC(=O)O)sc2c(OC)c1OC` [Example 2-14, [5-(5,6,7-Trimethoxy-2-benzothienyl)tetrazol-1-yl]acetic acid], the IC50 was 69 nM.
On to `O=C(O)Cn1nnnc1-c1cc2ccccc2o1` [Example 2-15, [5-(2-Benzofuryl)tetrazol-1-yl]acetic acid], for which the IC50 came to 46 nM.
Take `Cc1c(-c2nnnn2CC(=O)O)oc2ccccc12` [Example 2-16, [5-(3-Methyl-2-Benzofuryl)tetrazol-1-yl]acetic acid]: the IC50 was 68 nM.
For the compound `COc1cccc2sc(-c3nnnn3CC(=O)O)cc12` [Example 2-9, [5-(4-Methoxy-2-benzothienyl)tetrazol-1-yl]acetic acid], the IC50 came out at 20 nM.
In the case of `COc1ccc2cc(-c3nnnn3CC(=O)O)sc2c1` [Example 2-11, [5-(6-Methoxy-2-benzothienyl)tetrazol-1-yl]acetic acid], the IC50 came to 21 nM.
Under `CC(C)c1ccc2cc(-c3nnnn3CC(=O)O)sc2c1` [Example 2-13, [5-(6-Isopropyl-2-benzothienyl)tetrazol-1-yl]acetic acid] stands 18 nM; under `COc1ccc2c(C)c(-c3nnnn3CC(=O)O)oc2c1` [Example 2-17, [5-(6-Methoxy-3-methyl-2-benzofuryl)tetrazol-1-yl]acetic acid], 160 nM.
The value for `O=C(O)Cn1nnnc1-c1cccc2sccc12` [Example 2-3, [5-(4-Benzothienyl)tetrazol-1-yl]acetic acid] was 26 nM; that for `CCCCOc1ccc2cc(-c3nnnn3CC(=O)O)sc2c1` [Example 2-12, [5-(6-Butoxy-2-benzothienyl)tetrazol-1-yl]acetic acid] was 24 nM.
